Source: patent US10858316B2, “Small molecule inhibitors of the MCL-1 oncoprotein and uses thereof” (University of Maryland, Baltimore, priority 2015, dated 2020)
Read-outs that look alike come from different tables or passages of the source.

Target: Mcl-1 (Homo sapiens (Human), UniProt Q07820)
Assay: Fluorescence polarization competition assay (FPCA), Mcl-1 / FITC-Bak BH3 peptide
Type: binding
Settings: for Mcl-1 Exp ΔG: ΔG=−RTlnKi from experimental Ki
Source text: The tagged protein was initially purified from the crude cell lysate by immobilized metal affinity chromatography (IMAC) chromatography (GE Healthcare Life Sciences), and after dialysis to remove the imidazole the affinity tag was cleaved using PreScission Protease (GE Healthcare Life Sciences). A Sephacryl S-200 size exclusion column was used as a final purification step before the protein was concentrated with a 10,000 MWCO centifugal filter concentrator (Millipore).
Fluorescence polarization experiments were conducted using a BMG PHERAstar FS multimode microplate reader equipped with two PMTs for simultaneous measurements of the perpendicular and parallel fluorescence emission. The assays were performed in black polypropylene 384-well microplate (Costar) with a final volume of 20 microliter. […] Regression analysis was carried out using Origin (OriginLab, Northampton, Mass.) to fit the data to the Hill equation (1) to determine the initial binding affinity (KD) and the IC50 in the FPCA. For the fluorescence polarization competition titrations, an equation derived by Nikolovska-Coleska et al. was used to calculate the Ki from the IC50 data.
The target molecules were assayed for their abilities to disrupt the Mcl-1-Bak-BH3 PPI in a fluorescence polarization competition (FPC) assay with Mcl-1 and FITC-labeled Bak-BH3 peptide. Further details on the FPC assay can be found in the Supporting Information.

[1] = FPCA with FITC-Bak, Ki from IC50 by Nikolovska-Coleska equation, read-out: Mcl-1 Ki

Chain of Mcl-1 (Q07820 172-327): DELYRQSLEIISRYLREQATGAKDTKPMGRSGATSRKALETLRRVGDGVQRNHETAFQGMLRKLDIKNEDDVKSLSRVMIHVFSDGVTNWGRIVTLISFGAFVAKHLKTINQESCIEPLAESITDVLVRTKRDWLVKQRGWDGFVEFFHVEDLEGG

SMILES | Ki [1] [µM] | further results
N#Cc1cccc(NS(=O)(=O)c2cc(C(=O)O)c(O)c3ccccc23)c1 [Compound 3ad, 4-(N-(3-Cyanophenyl)sulfamoyl)-1-hydroxy-2-naphthoic Acid] | 26.9 ± 0.6 | 
Cc1cc(OCCCN2CC(C(=O)O)Cc3ccccc32)cc(C)c1Cl (racemic) [±-11] | 7.77 ± 1.39 | 
CC(C)CN(c1ccc(Br)cc1)S(=O)(=O)c1cc(C(=O)O)c(O)c2ccccc12 [Compound 3ca, 4-(N-(4-Bromophenyl)-N-isobutylsulfamoyl)-1-hydroxy-2-naphthoic Acid] | 0.566 | Mcl-1 Exp ΔG: -8.52 kcal/mol
O=C(O)c1cc(S(=O)(=O)NCc2ccccc2Cl)c2ccccc2c1O [Compound 3d, 4-(N-(2-Chlorobenzyl)sulfamoyl)-1-hydroxy-2-naphthoic Acid] | 50.3 ± 11.8 | 
N#Cc1ccc(NS(=O)(=O)c2cc(C(=O)O)c(O)c3ccccc23)cc1 [3ab; TA-1-018] |  | Mcl-1 Exp ΔG: -6.35 kcal/mol
O=C(O)c1cc(S(=O)(=O)Nc2ccccc2)c2ccccc2c1O [Compound 3l, 1-Hydroxy-4-(N-phenylsulfamoyl)-2-naphthoic acid] | 106 ± 26 | 
CN(C)S(=O)(=O)c1cc(C(=O)O)c(O)c2ccccc12 [Compound 3h, 4-(N,N-Dimethylsulfamoyl)-1-hydroxy-2-naphthoic Acid] | 25.7 ± 4.86 | 
CC(C)CN(c1ccc(C(=O)O)cc1)S(=O)(=O)c1ccc2ccccc2c1 [LC-3-031 8b] | > 500 | 
O=C(O)c1ccc(N(Cc2ccccc2)S(=O)(=O)c2ccc3ccccc3c2)cc1O [LC-4-113 13ca] | 11.4 ± 1.57 | 
O=C(O)c1ccc2c(c1)CCCN2S(=O)(=O)c1ccc(-c2ccccc2)cc1 [LC-3-002, 1-([1,1′-biphenyl]-4-ylsulfonyl)-1,2,3,4-tetrahydroquinoline-6-carboxylic acid] | 14 | 
O=C(O)c1ccc(N(C2CCCC2)S(=O)(=O)c2ccc(-c3ccccc3)cc2)cc1O [LC-4-082 13bb] | 5.24 ± 0.694 | 
Cc1ccc(NS(=O)(=O)c2cc(C(=O)O)c(O)c3ccccc23)cc1 [Compound 3x, 1-Hydroxy-4-(N-(p-tolyl)sulfamoyl)-2-naphthoic Acid] | 34.3 ± 1 | 
O=C(O)c1cc(S(=O)(=O)Nc2ccc(C(F)(F)F)cc2)c2ccccc2c1O [3w; 5JC73-1] |  | Mcl-1 Exp ΔG: -7.64 kcal/mol
O=C(O)c1ccc(N(Cc2ccccc2)S(=O)(=O)c2ccc(-c3ccccc3)cc2)cc1O [LC-4-112 13cb] | 1.71 ± 0.144 | 
CC(C)CN(c1ccc(C(=O)Oc2ccccc2)c(O)c1)S(=O)(=O)c1ccc(Oc2ccccc2)cc1 [LC-4-134 21] | > 500 | 
O=C(O)c1cc(S(=O)(=O)Nc2ccc(Cl)cc2)c2ccccc2c1O [3v; 5JC67] |  | Mcl-1 Exp ΔG: -7.80 kcal/mol
CC(C)CN(c1cccc(C(=O)O)c1)S(=O)(=O)c1ccc2ccccc2c1 [4jc177-3 18ab] | 61.7 ± 4.73 | 
CC(C)CN(c1ccc(C#N)c(O)c1)S(=O)(=O)c1ccc(Oc2ccccc2)cc1 [LC-5-050 23] | > 500 | 
CC(C)CN(c1cccc(C(=O)O)c1)S(=O)(=O)c1ccc(-c2ccccc2)cc1 [4jc177-4 18ac] | > 500 | 
CC(C)c1ccc(NS(=O)(=O)c2cc(C(=O)O)c(O)c3ccccc23)cc1 [3y; 5JC74-2] |  | Mcl-1 Exp ΔG: -7.38 kcal/mol
Cc1ccc(S(=O)(=O)N(CC(C)C)c2cccc(C(=O)O)c2)cc1 [4jc177-2 18ae] | 155 ± 14.7 | 
CC(C)CN(c1ccc(C(=O)O)c(O)c1)S(=O)(=O)c1ccc(Oc2ccc(Cl)cc2Cl)cc1 [LC-4-111 13aj] | 2.74 ± 0.258 | 
O=C(O)c1cc(S(=O)(=O)NCc2cccc(Cl)c2)c2ccccc2c1O [3e; 5JC71] |  | Mcl-1 Exp ΔG: -7.22 kcal/mol
O=C(O)c1cc(S(=O)(=O)Nc2ccccc2Br)c2ccccc2c1O [Compound 3m, 4-(N-(2-bromophenyl)sulfamoyl)-1-hydroxy-2-naphthoic Acid] | 6.84 ± 2.23 | 
O=C(O)c1cc(S(=O)(=O)Nc2cccc(Br)c2)c2ccccc2c1O [Compound 3n, 4-(N-(3-Bromophenyl)sulfamoyl)-1-hydroxy-2-naphthoic Acid] | 5.64 ± 1.76 | 
O=C(O)c1cc(S(=O)(=O)Nc2ccc(-c3ccccc3)cc2)c2ccccc2c1O [Compound 3t, 4-(N-([1,1′-Biphenyl]-4-yl)sulfamoyl)-1-hydroxy-2-naphthoic Acid] | 1.54 ± 0.46 | 
O=C(O)c1cc(S(=O)(=O)Nc2ccc(-c3ccccc3)cc2)c2ccccc2c1O [3t; LC-3-192] |  | Mcl-1 Exp ΔG: -7.93 kcal/mol
CC(C)CN(c1ccc(-c2cc(=O)[nH]o2)cc1)S(=O)(=O)c1ccc(Oc2ccccc2)cc1 [LC-5-069Toptop 26] | > 500 | 

SMILES | Ki [1] [µM] | further results
CC(C)Oc1ccc(NS(=O)(=O)c2cc(C(=O)O)c(O)c3ccccc23)cc1 [Compound 3aa, 1-Hydroxy-4-(N-(4-isopropoxyphenyl)sulfamoyl)-2-naphthoic Acid] | 54 ± 4.6 | 
O=C(O)c1cc(S(=O)(=O)N2CCN(c3ccccc3)CC2)c2ccccc2c1O [Compound 3j, 1-Hydroxy-4-((4-phenylpiperazin-1-yl)sulfonyl)-2-naphthoic Acid] | 4.54 ± 3.86 | 
NS(=O)(=O)c1cc(C(=O)O)c(O)c2ccccc12 [Compound 3b, 1-Hydroxy-4-sulfamoyl-2-naphthoic Acid] | 99 | 
O=C(O)c1cc(S(=O)(=O)N2CCN(Cc3ccccc3)CC2)c2ccccc2c1O [Compound 3k, 4-((4-Benzylpiperazin-1-yl)sulfonyl)-1-hydroxy-2-naphthoic Acid] | 3.41 ± 0.37 | 
Cc1ccc(Oc2ccc(S(=O)(=O)N(CC(C)C)c3ccc(C(=O)O)c(O)c3)cc2)cc1 [LC-4-119 13ah] | 2.25 ± 0.168 | 
CC(C)c1ccc(NS(=O)(=O)c2cc(C(=O)O)c(O)c3ccccc23)cc1 [Compound 3y, 1-Hydroxy-4-(N-(4-isopropylphenyl)sulfamoyl)-2-naphthoic Acid] | 3.86 ± 1.53 | 
O=C(O)c1cc(S(=O)(=O)NCc2cccc(Cl)c2)c2ccccc2c1O [Compound 3e, 4-(N-(3-Chlorobenzyl)sulfamoyl)-1-hydroxy-2-naphthoic Acid] | 5.03 ± 2.78 | 
CC(C)CN(c1ccc(C(=O)O)cc1)S(=O)(=O)c1ccccc1 [LC-3-029 8a] | > 500 | 
N#Cc1ccc(NS(=O)(=O)c2cc(C(=O)O)c(O)c3ccccc23)cc1 [Compound 3ab, 4-(N-(4-Cyanophenyl)sulfamoyl)-1-hydroxy-2-naphthoic Acid] | 22.2 ± 1.6 | 
CC(=O)OCOC(=O)c1ccc(N(CC(C)C)S(=O)(=O)c2ccc(Oc3ccccc3)cc2)cc1O [LC-4-141 22] | > 500 | 
O=C(O)C1Cc2ccccc2N(S(=O)(=O)c2ccc(-c3ccccc3)cc2)C1 (racemic) [SF-5-133, (±)-1-([1,1′-biphenyl]-4-ylsulfonyl)-1,2,3,4-tetrahydroquinoline-3-carboxylic acid] |  | Ki (read-out: Mcl-1 Ki): 12 µM
Cc1cc(Oc2ccc(S(=O)(=O)N3CC(C(=O)O)Cc4ccccc43)cc2)cc(C)c1Cl (racemic) [SF-5-141, (±)-1-((4-(4-chloro-3,5-dimethylphenoxy)phenyl)sulfonyl)-1,2,3,4-tetrahydroquinoline-3-carboxylic acid] |  | Ki (read-out: Mcl-1 Ki): 0.286 µM
CC(C)CN(c1ccc(C(=O)O)c(O)c1)S(=O)(=O)c1ccc(F)cc1 [LC-5-025 13ad] | 99.4 ± 9.37 | 
O=C(O)c1cc(S(=O)(=O)Nc2ccc(C(F)(F)F)cc2)c2ccccc2c1O [Compound 3w, 1-Hydroxy-4-(N-(4-(trifluoromethyl)phenyl)sulfamoyl)-2-naphthoic Acid] | 2.5 ± 0.65 | 
CC(C)CN(c1ccc(C(=O)O)c(O)c1)S(=O)(=O)c1ccc(-c2ccccc2)cc1 [Compound 4jc117-4, 2-hydroxy-4-(N-isobutyl-[1,1′-biphenyl]-4-ylsulfonamido)benzoic acid] |  | Ki (fluorescence polarization competition assay, read-out: Ki (μM) Mcl-1): 7.87 ± 0.263 µM
O=C(O)c1cc(S(=O)(=O)NCc2ccccc2Cl)c2ccccc2c1O [3d; 5JC73-2] |  | Mcl-1 Exp ΔG: -5.86 kcal/mol
O=C(O)C1Cc2ccccc2N(S(=O)(=O)c2ccc(F)cc2)C1 (racemic) [±-8c] | 176 ± 115 | 
Cc1cc(Oc2ccc(S(=O)(=O)N(CC(C)C)c3ccc(C(=O)O)cc3)cc2)cc(C)c1Cl [LC-3-035 8e] | 2.06 ± 0.118 | 
O=C(O)c1cc(S(=O)(=O)Nc2ccc(Oc3ccc(Cl)cc3)cc2)c2ccccc2c1O [3bh; SF-5-304] |  | Mcl-1 Exp ΔG: -9.22 kcal/mol
CC(C)Oc1ccc(NS(=O)(=O)c2cc(C(=O)O)c(O)c3ccccc23)cc1 [3aa; SF-5-293] |  | Mcl-1 Exp ΔG: -5.82 kcal/mol
O=C(O)c1cc(S(=O)(=O)Nc2cccc(Br)c2)c2ccccc2c1O [3n; TA-1-020] |  | Mcl-1 Exp ΔG: -7.16 kcal/mol
Cc1ccc(S(=O)(=O)N(CC(C)C)c2ccc(C(=O)O)c(O)c2)cc1 [Compound 4jc117-2, 2-hydroxy-4-(N-isobutyl-4-methylphenylsulfonamido)benzoic acid] |  | Ki (read-out: Mcl-1 Ki): 302 ± 31.8 µM
O=C(O)C1Cc2ccccc2N(S(=O)(=O)c2ccc(F)cc2)C1 (racemic) [SF-5-136, (±)-1-((4-fluorophenyl)sulfonyl)-1,2,3,4-tetrahydroquinoline-3-carboxylic acid] |  | Ki (read-out: Mcl-1 Ki): > 1000 µM
Cc1ccc(NS(=O)(=O)c2cc(C(=O)O)c(O)c3ccccc23)cc1 [3x; 5JC74-1] |  | Mcl-1 Exp ΔG: -6.09 kcal/mol
CC(C)CN(c1ccc(-c2nnn[nH]2)cc1)S(=O)(=O)c1ccc(Oc2ccccc2)cc1 [LC-5-068 24] | 3.3 ± 0.26 | 
CC(C)CN(c1cccc(C(=O)O)c1)S(=O)(=O)c1ccccc1 [4jc177-1 18aa] | > 500 | 
O=C(O)C1Cc2ccccc2N(S(=O)(=O)c2ccc3ccccc3c2)C1 (racemic) [SF-5-134, (±)-1-(naphthalen-2-ylsulfonyl)-1,2,3,4-tetrahydroquinoline-3-carboxylic acid] |  | Ki (read-out: Mcl-1 Ki): 30 µM
